Source: PubChem BioAssay AID330 (DTP/NCI, 2004)
Values joined by “and” are separate entries in the source; they are usually repeats but may differ in a detail not shown here. Identical values can stand only once. Toxic doses and inconclusive results are not listed.

Tested on: P388 leukemia ip, CD2F1 mice, survival T/C
Test: NCI In Vivo Anticancer Drug Screen. Data for tumor model P388 Leukemia (intraperitoneal) in CD2F1 (CDF1) mice
Conditions: endpoint: median survival time, higher = longer survival
In short: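 Mice carrying the transplanted tumor received test compound or vehicle. Survival was recorded in each group, and the value is the treated-group measurement divided by that of the vehicle-treated control group.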

[1] = dose: 50.0 mg/kg/injection, schedule: Q01DX009 (ip), vehicle: saline with Tween-80
[2] = dose: 100.0 mg/kg/injection, schedule: Q01DX009 (ip), vehicle: saline with Tween-80
[3] = dose: 60.0 mg/kg/injection, schedule: Q01DX005 (ip), vehicle: saline with Tween-80
[4] = dose: 120.0 mg/kg/injection, schedule: Q01DX005 (ip), vehicle: saline with Tween-80
[5] = dose: 240.0 mg/kg/injection, schedule: Q01DX005 (ip), vehicle: saline with Tween-80
[6] = dose: 50.0 mg/kg/injection, schedule: Q01DX005 (ip), vehicle: saline with Tween-80
[7] = dose: 100.0 mg/kg/injection, schedule: Q01DX005 (ip), vehicle: saline with Tween-80
[8] = dose: 200.0 mg/kg/injection, schedule: Q01DX005 (ip), vehicle: saline with Tween-80
[9] = dose: 50.0 mg/kg/injection, schedule: Q01DX005 (ip), vehicle: Klucel (hydroxypropylcellulose) (HPC)
[10] = dose: 100.0 mg/kg/injection, schedule: Q01DX005 (ip), vehicle: Klucel (hydroxypropylcellulose) (HPC)
[11] = dose: 200.0 mg/kg/injection, schedule: Q01DX005 (ip), vehicle: Klucel (hydroxypropylcellulose) (HPC)
[12] = dose: 60.0 mg/kg/injection, schedule: Q01DX005 (ip), vehicle: Klucel (hydroxypropylcellulose) (HPC)
[13] = dose: 120.0 mg/kg/injection, schedule: Q01DX005 (ip), vehicle: Klucel (hydroxypropylcellulose) (HPC)
[14] = dose: 240.0 mg/kg/injection, schedule: Q01DX005 (ip), vehicle: Klucel (hydroxypropylcellulose) (HPC)

CN=C(N)NCCCCCCCCNC(N)=NC was tested, and the T/C (dose: 3.13 mg/kg/injection, schedule: Q01DX009 (ip), vehicle: saline with Tween-80) was 112 % of control, the T/C (dose: 3.13 mg/kg/injection, schedule: Q01DX009 (ip), vehicle: saline) was 124 % of control and the T/C (dose: 6.25 mg/kg/injection, schedule: Q01DX009 (ip), vehicle: saline with Tween-80) was 109 % of control. The T/C (dose: 6.25 mg/kg/injection, schedule: Q01DX009 (ip), vehicle: saline) was 109 % of control, the T/C (dose: 12.5 mg/kg/injection, schedule: Q01DX009 (ip), vehicle: saline with Tween-80) was 112 % of control and the T/C (dose: 25.0 mg/kg/injection, schedule: Q01DX009 (ip), vehicle: saline) was 87 % of control.
With CSC(=NS(=O)(=O)c1ccc(C)cc1)SC the T/C (dose: 50.0 mg/kg/injection, schedule: Q01DX009 (ip), vehicle: saline) was 109 % of control, the T/C (dose: 100.0 mg/kg/injection, schedule: Q01DX009 (ip), vehicle: saline) was 106 % of control and the T/C (dose: 200.0 mg/kg/injection, schedule: Q01DX009 (ip), vehicle: saline) was 113 % of control.
For CC[CH](C)[Sn](=[O])[c]1ccccc1 (stereo unspecified), the T/C (dose: 0.39 mg/kg/injection, schedule: Q01DX009 (ip), vehicle: saline) was 101 % of control, the T/C (dose: 0.79 mg/kg/injection, schedule: Q01DX009 (ip), vehicle: saline) was 117 % of control and the T/C (dose: 3.12 mg/kg/injection, schedule: Q01DX009 (ip), vehicle: saline with Tween-80) was 153 % of control.
With CC([NH-])CC(C)[NH-].[Br][Pt+2][Br] (stereo unspecified) the T/C (dose: 6.25 mg/kg/injection, schedule: Q04DX002 (ip), vehicle: saline with Tween-80) was 154 % of control and 171 % of control and 159 % of control and the T/C (dose: 12.5 mg/kg/injection, schedule: Q04DX002 (ip), vehicle: saline with Tween-80) was 188 % of control and 183 % of control and 186 % of control.
With CCn1c2c(c3ccccc31)CCSC2(C)CCN(C)C (stereo unspecified) the T/C (dose: 25.0 mg/kg/injection, schedule: Q01DX009 (ip), vehicle: saline with Tween-80) was 105 % of control, the T/C [1] was 96 % of control and the T/C [2] was 117 % of control.
C[Si](C)(C)Cn1cccc1 was tested, and the T/C [3] was 103 % of control, the T/C [4] was 102 % of control and the T/C [5] was 94 % of control.
O=C1NC(=O)c2ccc3c4ccc5c6c(ccc(c7ccc1c2c73)c46)c(=O)n1c2ccccc2nc51 was tested, and the T/C (dose: 90.0 mg/kg/injection, schedule: Q01DX001 (ip), vehicle: Klucel (hydroxypropylcellulose) (HPC)) was 94 % of control, the T/C (dose: 180.0 mg/kg/injection, schedule: Q01DX001 (ip), vehicle: Klucel (hydroxypropylcellulose) (HPC)) was 94 % of control and the T/C (dose: 360.0 mg/kg/injection, schedule: Q01DX001 (ip), vehicle: Klucel (hydroxypropylcellulose) (HPC)) was 92 % of control.
With CN(C)N=Nc1ccc(S(=O)(=O)Nc2ncccn2)cc1 the T/C (dose: 8.75 mg/kg/injection, schedule: Q01DX009 (ip), vehicle: saline with Tween-80) was 107 % of control, the T/C (dose: 35.0 mg/kg/injection, schedule: Q01DX009 (ip), vehicle: saline with Tween-80) was 160 % of control and the T/C (dose: 50.0 mg/kg/injection, schedule: Q04DX003 (ip), vehicle: saline with Tween-80) was 96 % of control. For the same compound, the T/C (dose: 400.0 mg/kg/injection, schedule: Q04DX003 (ip), vehicle: saline with Tween-80) was 111 % of control and 92 % of control.
CCc1nc(N)nc(N)c1-c1ccc(OC)c(N)c1 was tested, and the T/C [6] was 102 % of control and 116 % of control, the T/C [7] was 112 % of control and the T/C [8] was 119 % of control.
For CCOC(=O)/C=C1\CONC(c2ccc(OC)cc2)=N1, the T/C [3] was 106 % of control, the T/C [4] was 97 % of control and the T/C [5] was 105 % of control.
For CSC1=NNC(C)(C)C(N)=N1, the T/C (dose: 100.0 mg/kg/injection, schedule: Q01DX001 (ip), vehicle: saline) was 98 % of control, the T/C (dose: 200.0 mg/kg/injection, schedule: Q01DX001 (ip), vehicle: saline) was 97 % of control and the T/C (dose: 400.0 mg/kg/injection, schedule: Q01DX001 (ip), vehicle: saline) was 100 % of control.
In the case of Cc1ccc(N=Nc2c(C)nn(C(=S)S)c2C)cc1, the T/C (dose: 100.0 mg/kg/injection, schedule: Q04DX002 (ip), vehicle: Klucel (hydroxypropylcellulose) (HPC)) is reported as 100 % of control and the T/C (dose: 200.0 mg/kg/injection, schedule: Q04DX002 (ip), vehicle: Klucel (hydroxypropylcellulose) (HPC)) is reported as 105 % of control.
In the case of CC1(C)Cc2c([nH]c3ccccc3c2=O)-c2ccccc21, the T/C [9] is reported as 96 % of control, the T/C [10] is reported as 100 % of control and the T/C [11] is reported as 103 % of control.
In the case of O=c1[nH]nc(Sc2ccccc2)c2nncn12, the T/C [6] is reported as 100 % of control and the T/C [7] is reported as 92 % of control.
With O=C1NCC(COc2ccc([N+](=O)[O-])cc2)O1 (stereo unspecified) the T/C [12] was 109 % of control, the T/C [13] was 90 % of control and the T/C [14] was 93 % of control.
In the case of COCC/C=C\CN(C(C)C)C(C)C, the T/C [1] is reported as 99 % of control and the T/C [2] is reported as 101 % of control.
CNC(=O)On1cc(Cl)cc1C#N was tested, and the T/C (dose: 50.0 mg/kg/injection, schedule: Q01DX001 (ip), vehicle: Klucel (hydroxypropylcellulose) (HPC)) was 101 % of control and the T/C (dose: 100.0 mg/kg/injection, schedule: Q01DX001 (ip), vehicle: Klucel (hydroxypropylcellulose) (HPC)) was 118 % of control.
With O=C1OCC2OCCC12 (stereo unspecified) the T/C (dose: 50.0 mg/kg/injection, schedule: Q01DX005 (ip), vehicle: saline) was 100 % of control, the T/C (dose: 100.0 mg/kg/injection, schedule: Q01DX005 (ip), vehicle: saline) was 100 % of control and the T/C (dose: 200.0 mg/kg/injection, schedule: Q01DX005 (ip), vehicle: saline) was 101 % of control.
In the case of Clc1cc(Cl)nc(N2CCCCC2)n1, the T/C (dose: 25.0 mg/kg/injection, schedule: Q04DX003 (ip), vehicle: Klucel (hydroxypropylcellulose) (HPC)) is reported as 105 % of control, the T/C (dose: 50.0 mg/kg/injection, schedule: Q04DX003 (ip), vehicle: Klucel (hydroxypropylcellulose) (HPC)) is reported as 102 % of control and the T/C (dose: 100.0 mg/kg/injection, schedule: Q04DX003 (ip), vehicle: Klucel (hydroxypropylcellulose) (HPC)) is reported as 100 % of control. For the same compound, the T/C (dose: 200.0 mg/kg/injection, schedule: Q04DX003 (ip), vehicle: Klucel (hydroxypropylcellulose) (HPC)) was 105 % of control.
For COc1ccc2c(c1OC)C1=C(C2=O)c2cc3c(cc2CCN1)OCO3, the T/C (dose: 50.0 mg/kg/injection, schedule: Q01DX005 (ip), vehicle: saline + Tween-80 + alcohol) was 102 % of control, the T/C (dose: 100.0 mg/kg/injection, schedule: Q01DX005 (ip), vehicle: saline + Tween-80 + alcohol) was 100 % of control and the T/C (dose: 200.0 mg/kg/injection, schedule: Q01DX005 (ip), vehicle: saline + Tween-80 + alcohol) was 102 % of control.
For COC(C)C(Cl)C(=O)NN=C(c1ccccc1)c1ccccc1 (stereo unspecified), the T/C [1] was 108 % of control, the T/C [2] was 105 % of control and the T/C (dose: 200.0 mg/kg/injection, schedule: Q01DX009 (ip), vehicle: saline with Tween-80) was 99 % of control.
With CC(C)NCC(O)CC(c1ccccc1)c1ccccc1 (stereo unspecified) the T/C [1] was 95 % of control and the T/C [2] was 111 % of control.
For CCOc1cc2c(cc1C(CC)c1ccc(OC)cc1)OCO2 (stereo unspecified), the T/C [9] was 104 % of control, the T/C [10] was 104 % of control and the T/C [11] was 99 % of control.
O=S1(=O)c2ccccc2N(c2ccccc2)C2=NCCN21 was tested, and the T/C [3] was 91 % of control, the T/C [4] was 99 % of control and the T/C [5] was 97 % of control.
In the case of CC(N1CCS(=O)(=O)CC1)P(=O)(O)O (stereo unspecified), the T/C [6] is reported as 90 % of control, the T/C [7] is reported as 99 % of control and the T/C [8] is reported as 100 % of control.
With CC(=O)[O-].CC(=O)[O-].O=C(N/N=C/c1ccccc1[OH2+])c1ccncc1.[Zn+2] the T/C [12] was 100 % of control, the T/C [13] was 100 % of control and the T/C [14] was 99 % of control.
With O=C(CCSCCCl)Nc1c([N+](=O)[O-])cc([N+](=O)[O-])cc1S(=O)(=O)O the T/C (dose: 3.13 mg/kg/injection, schedule: Q04DX003 (ip), vehicle: DMSO) was 104 % of control, the T/C (dose: 6.25 mg/kg/injection, schedule: Q04DX003 (ip), vehicle: DMSO) was 99 % of control and the T/C (dose: 12.5 mg/kg/injection, schedule: Q04DX003 (ip), vehicle: DMSO) was 111 % of control. For the same compound, the T/C (dose: 25.0 mg/kg/injection, schedule: Q04DX003 (ip), vehicle: DMSO) was 124 % of control, the T/C (dose: 25.0 mg/kg/injection, schedule: Q04DX003 (ip), vehicle: olive oil, sesame oil, peanut oil) was 118 % of control and the T/C (dose: 50.0 mg/kg/injection, schedule: Q04DX003 (ip), vehicle: DMSO) was 118 % of control. For the same compound, the T/C (dose: 75.0 mg/kg/injection, schedule: Q04DX003 (ip), vehicle: DMSO) was 118 % of control.
CCOC(=O)c1cnc2cc3c(cc2c1Nc1ccc2c(c1)OCO2)OCO3 was tested, and the T/C (dose: 60.0 mg/kg/injection, schedule: Q01DX005 (ip), vehicle: Klucel + Tween-80) was 108 % of control and the T/C (dose: 120.0 mg/kg/injection, schedule: Q01DX005 (ip), vehicle: Klucel + Tween-80) was 109 % of control.
